Several values for one entry are separate records, joined by “and”; a condition that tells them apart may be missing. Equal values may be shown once.
Test system: 30% erythrocytes
Assay: Berberine loading of erythrocytes (loading efficiency)
Format: in vitro ADME, rats
Conditions: 37 °C, 2 h, n = 3
Experimental: The whole blood was collected from rats by orbital plexus vein and transferred into a blood-collection tube containing ethylene diamine tetraacetic acid (EDTA) as an anticoagulant. The whole blood was centrifuged at 3000 rpm for 10 min. The plasma and the buffy coat in the supernatant were removed by aspiration, and erythrocytes were washed three times in cold phosphate buffer saline (PBS) and centrifuged for 10 min at 3000 rpm, and then resuspended in an appropriate volume of PBS.
In order to determine the effect of BBR concentration on loading efficiency, different concentrations (1.000, 0.100, 0.010 and 0.001 M) of BBR were comparatively used at 37 °C for fixed incubation time (2 h) to obtain the more suitable concentration for the loading process. The hematocrite of washed erythrocytes was adjusted by PBS to 30%. In the 5-mL Eppendorf tubes, 1 mL of 30% erythrocytes was added to 1 mL PBS containing the known concentration of the agent. The final concentrations of BBR in the reaction system were […] (185, 18.5, 1.85 and 0.185 μg/mL), respectively. The mixtures were gently mixed to avoid hemolysis and incubated for 2 h at 37 °C. After incubation, the erythrocytes suspension was centrifuged for 10 min at 3000 rpm and the supernatant was collected.
In order to verify the binding system, the supernatant was analyzed by quantifying the amount of unbound BBR through HPLC. In order to offset this effect, an internal standard method was employed in this study and piperine was chosen as the internal standard substance (200 μg/mL). Different known concentrations (500.00, 100.00, 20.00, 4.00, 0.80, 0.16 μg/mL) of BBR and piperine were used to create the standard curve. The peak area of each concentration with the concentration of piperine was measured 3 times. And then, the calibration curves were prepared using linear regression of known drug concentration versus peak area. The unknown concentration of BBR was analyzed by the regressed equation: y = a(x) + b. While y is the peak area ratio of BBR and piperine, a is the slope, b is the y-intercept, and x is the concentration of BBR.
After incubation, acetonitrile was added to the different incubated solutions for protein precipitation. The mixtures were centrifuged at 8000 rpm for 10 min. The supernatants were collected and dried. The eluates were concentrated and re-dissolved for analysis. The loading efficiency was calculated according to the following formula: Loading efficiency (%) = [(Moriginal drug−Mdrug after incubation)/Moriginal drug] ×100%

[1] = BBR 0.185 μg/mL in BBR-erythrocyte system
[2] = BBR 1.850 μg/mL in BBR-erythrocyte system
[3] = BBR 18.500 μg/mL in BBR-erythrocyte system

## COc1ccc2cc3[n+](cc2c1OC)CCc1cc2c(cc1-3)OCO2 [BBR, Berberine]
[1]
  Extracellular BBR concentration after incubation: 0 ± 0.051 µg/mL
  Loading percentage: 100% and 100 ± 19.84%
[2]
  Extracellular BBR concentration after incubation: 0.115 ± 0.072 µg/mL
  Loading percentage: 95.528 ± 2.622%
[3]
  Extracellular BBR concentration after incubation: 2.288 ± 0.105 µg/mL
  Loading percentage: 88.772 ± 0.410%
